Test results published in patent US10597388B2, “Pyridazinone herbicides” (FMC CORPORATION, priority 2014, dated 2020).

Tests used:
Format in all cases: in vivo
[1] = system: oilseed rape (Brassica napus); experiment: Test C greenhouse herbicide test, pre- and postemergence
Procedure, shortened: (§1)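 Percent-control ratings (0 none, 100 complete) came from visual comparison with controls held alongside in the greenhouse for 13–15 d. Treatments covered soil application at sowing and foliar application to young plants 2–18 cm tall.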

[2] = system: galium (catchweed bedstraw, Galium aparine); experiment: as above
Procedure, shortened: as §1

[3] = system: foxtail, giant (giant foxtail, Setaria faberii); experiment: as above
Procedure, shortened: as §1

[4] = system: galium (catchweed bedstraw, Galium aparine); experiment: Test A greenhouse herbicide test, postemergence; conditions: for Galium plant response rating: 0 to 100 scale, 0 is no effect, 100 is complete control
Procedure, shortened: (§2)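 Seedlings in a loam soil and sand mix received formulated compound postemergence at the one- to two-leaf stage. Greenhouse holding lasts approximately 10 d, then injury is scored visually relative to untreated plants, 0 meaning no effect and 100 complete control.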

[5] = system: blackgrass (Alopecurus myosuroides); experiment: Test A greenhouse herbicide test, postemergence; conditions: for Plant response rating, Blackgrass: 125 g ai/ha, 0 to 100 scale where 0 is no effect and 100 is complete control; for Blackgrass plant response rating: 500 g ai/ha, 0 to 100 scale, 0 is no effect, 100 is complete control
Procedure, shortened: as §2

[6] = system: ryegrass, Italian (Italian ryegrass, Lolium multiflorum); experiment: Test A greenhouse herbicide test, pre- and postemergence
Procedure, shortened: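 Visual injury ratings, 0 (no effect) to 100 (complete control), versus untreated plants after roughly 10 d in a greenhouse. Compounds, formulated in a surfactant-containing non-phytotoxic solvent, were sprayed on loam–sand soil after sowing (pre) or on one- to two-leaf plants 2–10 cm tall (post).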

[7] = Postemergence, 31 g ai/ha, 0 to 100 scale (0 no effect, 100 complete control)
[8] = Postemergence, 125 g ai/ha, scale 0 to 100, 0 is no effect, 100 is complete control
[9] = Postemergence, 250 g ai/ha, scale 0 to 100, 0 no effect, 100 complete control, 13 to 15 d
[10] = Preemergence, 31 g ai/ha, scale 0 to 100, 0 is no effect, 100 is complete control
[11] = Preemergence, 62 g ai/ha, scale 0 to 100, 0 is no effect, 100 is complete control
[12] = Preemergence, 125 g ai/ha, scale 0 to 100, 0 is no effect, 100 is complete control
[13] = Preemergence, 250 g ai/ha, scale 0 to 100, 0 no effect, 100 complete control
[14] = postemergence, 62 g ai/ha, scale 0 to 100, 0 no effect, 100 complete control
[15] = 125 g ai/ha, 0 to 100 scale where 0 is no effect and 100 is complete control
[16] = Postemergence, 125 g ai/ha, 0 to 100 scale where 0 is no effect and 100 is complete control
[17] = Postemergence, 500 g ai/ha, 0 to 100 scale, 0 is no effect, 100 is complete control
[18] = Preemergence, 125 g ai/ha, 0 to 100 scale where 0 is no effect and 100 is complete control
[19] = Preemergence, 500 g ai/ha, 0 to 100 scale where 0 is no effect and 100 is complete control
[20] = Postemergence, 31 g ai/ha, scale 0 to 100 (0 no effect, 100 complete control)
[21] = 500 g ai/ha, visual rating after approx. 10 d, 0 to 100 scale (0 no effect, 100 complete control)
[22] = Postemergence, 500 g ai/ha, visual rating after approx. 10 d, 0 to 100 scale (0 no effect, 100 complete control)

Structure (SMILES) | Plant response rating, Oilseed Rape [1, 8] | Plant response rating, Oilseed Rape [1, 9] | Plant response rating, Oilseed Rape [1, 10] | Plant response rating, Oilseed Rape [1, 11] | Plant response rating, Oilseed Rape [1, 12] | Oilseed Rape plant response rating [1, 13] | Plant response rating, Galium [2, 8] | Plant response rating, Galium [2, 9] | Plant response rating, Galium [2, 10] | Plant response rating, Galium [2, 11] | Plant response rating, Galium [2, 12] | Galium plant response rating [2, 13] | Plant response rating, Foxtail, Giant [3, 8] | Plant response rating, Foxtail, Giant [3, 9] | Plant response rating, Galium [4, 15] | Plant response rating, Blackgrass [5] | Blackgrass plant response rating [5] | Plant response rating, Ryegrass, Italian [6, 16] | Ryegrass, Italian plant response rating [6, 18] | Plant response rating, Ryegrass, Italian [6, 19] | also measured
COC(=O)Oc1c(C)nn(C)c(=O)c1-c1c(C)sc2ccc(C)cc12 [Compound 80] | 60 | 80 | 0 | 30 | 50 | 0 | 95 | 95 | 90 | 95 | 95 | 95 | 70 | 90 | 90 | 80 | 80 | 80 | 90 | 100 | Oilseed Rape plant response rating [1, 7]: 5; Oilseed Rape plant response rating [1, 14]: 50; Galium plant response rating [2, 7]: 90; Galium plant response rating [2, 14]: 95; Foxtail, Giant plant response rating [3, 7]: 25; Plant response rating, Foxtail, Giant [3, 10]: 70; Plant response rating, Foxtail, Giant [3, 11]: 85; Plant response rating, Foxtail, Giant [3, 12]: 85; Foxtail, Giant plant response rating [3, 13]: 98; Foxtail, Giant plant response rating [3, 14]: 55; Galium plant response rating ([4]; 500 g ai/ha): 90; Ryegrass, Italian plant response rating [6, 17]: 90
CC(=O)Oc1c(C)nn(C)c(=O)c1-c1c(C)sc2ccc(Cl)cc12 [Compound 108] | 85 | 95 | 5 | 90 | 90 | 90 | 95 | 95 | 90 | 90 | 95 | 95 | 75 | 85 | 100 | 80 | 90 | 100 | 100 | 100 | Plant response rating, Oilseed Rape [1, 20]: 80; Plant response rating, Galium [2, 20]: 90; Plant response rating, Foxtail, Giant [3, 20]: 30; Plant response rating, Foxtail, Giant [3, 10]: 65; Plant response rating, Foxtail, Giant [3, 11]: 85; Plant response rating, Foxtail, Giant [3, 12]: 85; Foxtail, Giant plant response rating [3, 13]: 95; Plant response rating, Galium [4, 21]: 100; Plant response rating, Ryegrass, Italian [6, 22]: 100
CCCC(=O)Oc1c(C)nn(C)c(=O)c1-c1c(C)sc2ccc(C)cc12 [Compound 105] | 60 | 75 | 0 | 5 | 10 | 10 | 95 | 100 | 85 | 90 | 95 | 98 | 75 | 85 | 100 | 80 | 90 | 100 | 100 | 100 | Plant response rating, Oilseed Rape [1, 20]: 5; Plant response rating, Galium [2, 20]: 95; Plant response rating, Foxtail, Giant [3, 20]: 40; Plant response rating, Foxtail, Giant [3, 10]: 60; Plant response rating, Foxtail, Giant [3, 11]: 80; Plant response rating, Foxtail, Giant [3, 12]: 90; Foxtail, Giant plant response rating [3, 13]: 100; Plant response rating, Galium [4, 21]: 100; Plant response rating, Ryegrass, Italian [6, 22]: 100
CCC(=O)Oc1c(C)nn(C)c(=O)c1-c1c(C)ccc2ccccc12 [Compound 78] | 0 | 5 |  |  |  |  | 80 | 95 |  |  |  |  | 20 | 25 | 80 | 30 | 80 | 80 | 100 | 100 | Oilseed Rape plant response rating [1, 7]: 0; Oilseed Rape plant response rating [1, 14]: 0; Galium plant response rating [2, 7]: 70; Galium plant response rating [2, 14]: 80; Foxtail, Giant plant response rating [3, 7]: 15; Foxtail, Giant plant response rating [3, 14]: 5; Galium plant response rating ([4]; 500 g ai/ha): 100; Ryegrass, Italian plant response rating [6, 17]: 100
COC(=O)Oc1cnn(C)c(=O)c1-c1c(C)sc2ccccc12 [Compound 97] | 0 | 35 | 0 | 0 | 0 | 0 | 85 | 90 | 0 | 0 | 0 | 90 | 5 | 5 | 100 | 90 | 90 | 100 | 100 | 100 | Oilseed Rape plant response rating [1, 14]: 0; Galium plant response rating [2, 14]: 80; Plant response rating, Foxtail, Giant [3, 10]: 0; Plant response rating, Foxtail, Giant [3, 11]: 5; Plant response rating, Foxtail, Giant [3, 12]: 5; Foxtail, Giant plant response rating [3, 13]: 55; Foxtail, Giant plant response rating [3, 14]: 5; Plant response rating, Galium [4, 21]: 100; Plant response rating, Ryegrass, Italian [6, 22]: 100
CCCC(=O)Oc1c(C)nn(C)c(=O)c1-c1c(CC)sc2ccc(C)cc12 [Compound 107] | 80 | 45 | 0 | 0 | 20 | 80 | 100 | 98 | 90 | 90 | 90 | 95 | 70 | 75 | 100 | 80 | 90 | 60 | 80 | 100 | Plant response rating, Oilseed Rape [1, 20]: 25; Plant response rating, Galium [2, 20]: 95; Plant response rating, Foxtail, Giant [3, 20]: 15; Plant response rating, Foxtail, Giant [3, 10]: 60; Plant response rating, Foxtail, Giant [3, 11]: 80; Plant response rating, Foxtail, Giant [3, 12]: 85; Foxtail, Giant plant response rating [3, 13]: 98; Plant response rating, Galium [4, 21]: 100; Plant response rating, Ryegrass, Italian [6, 22]: 90
